{"source": "patent US12514800B2", "about": "“Personal and home care compositions comprising fatty acids from tung seed oil as antimicrobial preservative” (GALAXY SURFACTANTS LTD., priority 2020, dated 2026)", "assay": "UV absorption (E1% 1 cm)", "assay_type": "physicochemical", "settings": "at the λmax printed in Table 1 (290 nm fatty acids; 305 nm Homosalate, Octyl salicylate)", "excerpt": "Personal care composition comprising fatty acids, as obtained synthetically from Tung seed oil by aforementioned process, have good UV absorbing activity arising from the conjugated system of the fatty acids and is evident from its value of E1% lcm which is 1600 at 270 nm and 360 at 290 nm. In view of incorporation of the fatty acids in the personal care composition, not only the ingredients of the formulations are protected but also the skin and hair are protected from the ravages of solar radiation when the formulations are applied. […] The same is evident from the values of E1% lcm which is 360 at 290 nm (FIG. 2). UV B radiation of solar spectrum is the most damaging since it causes skin cancer."}
{"compound": "CC1CC(OC(=O)c2ccccc2O)CC(C)(C)C1", "note": "(stereo not shown) [Homosalate]", "values": [{"measurement": "E1%, 1 cm", "result": 180}]}
